Data: ChEMBL document CHEMBL2412952, “2-Substituted 4-hydroxybutanamides as potential inhibitors of γ-aminobutyric acid transporters mGAT1-mGAT4: synthesis and biological evaluation” (Bioorg Med Chem, 2013)

What was measured:
[1] = Inhibition of mouse GAT4-mediated [3H]GABA uptake stably transfected in HEK293 cells; format: cell-based
[2] = molecular target: Sodium- and chloride-dependent GABA transporter 1 (Mus musculus) (UniProt P31648); experiment: Binding affinity to mouse GAT1 stably transfected in HEK293 cells assessed as residual binding at 100 uM relative to control; format: cell-based
[3] = molecular target: T1, Sodium- and chloride-dependent GABA transporter 1 (Mus musculus, UniProt P31648); experiment: Inhibition of mouse GAT1-mediated [3H]GABA uptake stably transfected in HEK293 cells; format: cell-based
[4] = test system: GABA transporter 2 (Mus musculus); experiment: Inhibition of mouse GAT2-mediated [3H]GABA uptake stably transfected in HEK293 cells assessed as residual uptake at 100 uM relative to control
[5] = molecular target: T1, Sodium- and chloride-dependent GABA transporter 1; experiment: Binding affinity to mouse GAT1 stably transfected in HEK293 cells by NO-711 binding assay; format: cell-based
HEK293 = experiment: Inhibition of mouse GAT4-mediated [3H]GABA uptake stably transfected in HEK293 cells assessed as residual uptake at 100 uM relative to control; format: cell-based
[6] = molecular target: Sodium- and chloride-dependent GABA transporter 1 (Mus musculus) (UniProt P31648); experiment: Inhibition of mouse GAT1-mediated [3H]GABA uptake stably transfected in HEK293 cells assessed as residual uptake at 100 uM relative to control; format: cell-based
[7] = test system: GABA transporter 3 (Mus musculus); experiment: Inhibition of mouse GAT3-mediated [3H]GABA uptake stably transfected in HEK293 cells assessed as residual uptake at 100 uM relative to control

O=C(NCc1ccccc1)C(CCO)NCCCC(c1ccccc1)c1ccccc1 (stereo unspecified)
IC50 [1]: 38.9 µM | Activity [2]: 62% | IC50 [3]: 61.7 µM

C[C@H](O)C[C@H](C(=O)NCc1ccccc1)N1CCC(=C(c2ccccc2)c2ccccc2)CC1 (relative stereo)
IC50 [1]: 72.4 µM | Activity [2]: 51% | IC50 [3]: 24 µM

Cc1ccc(CNC(=O)[C@@H](C[C@H](C)O)N2CCC(=C(c3ccccc3)c3ccccc3)CC2)cc1 (relative stereo)
IC50 [1]: 34.7 µM | Activity [2]: 57% | IC50 [3]: 53.7 µM

O=C(NCc1ccccc1)C(CCO)N1CCC(C(c2ccccc2)c2ccccc2)CC1 (stereo unspecified)
IC50 [1]: 58.9 µM | Activity [4]: 51% | Activity [2]: 55% | IC50 [3]: 13.2 µM

Cc1ccc(CNC(=O)C(CCO)NCCCC(c2ccccc2)c2ccccc2)cc1 (stereo unspecified)
IC50 [1]: 23.4 µM | Ki [5]: 51.3 µM | IC50 [3]: 55 µM

C[C@H](O)C[C@H](C(=O)NCc1ccc(F)cc1)N1CCC(=C(c2ccccc2)c2ccccc2)CC1 (relative stereo)
Activity [2]: 52% | Activity (HEK293): 65% | IC50 [3]: 34.7 µM

O=C(NCc1ccccc1Cl)C(CCO)NCCCC(c1ccccc1)c1ccccc1 (stereo unspecified)
IC50 [1]: 20.9 µM | Ki [5]: 46.8 µM | IC50 [3]: 33.1 µM

CN(CCCC(c1ccccc1)c1ccccc1)C(CCO)C(=O)NCc1ccccc1 (stereo unspecified)
IC50 [1]: 36.3 µM | Activity [2]: 79% | IC50 [3]: 58.9 µM

Cc1ccc(CNC(=O)C(CCO)N(C)CCCC(c2ccccc2)c2ccccc2)cc1 (stereo unspecified)
IC50 [1]: 20.4 µM | Ki [5]: 81.3 µM | IC50 [3]: 37.2 µM

O=C(NCc1ccc(F)cc1)C(CCO)NCCCC(c1ccccc1)c1ccccc1 (stereo unspecified)
IC50 [1]: 25.1 µM | Activity [2]: 82% | IC50 [3]: 38.9 µM

O=C(NCc1ccc(Cl)cc1)C(CCO)NCCCC(c1ccccc1)c1ccccc1 (stereo unspecified)
IC50 [1]: 16.6 µM | Ki [5]: 56.2 µM | IC50 [3]: 23.4 µM

C[C@@H](O)C[C@H](C(=O)NCc1ccccc1)N1CCC(=C(c2ccccc2)c2ccccc2)CC1 (relative stereo)
IC50 [1]: 89.1 µM | Activity [2]: 50% | IC50 [3]: 7.76 µM

O=C(NCc1ccccc1Cl)C(CCO)N1CCC(C(c2ccccc2)c2ccccc2)CC1 (stereo unspecified)
IC50 [1]: 67.6 µM | Activity [2]: 89% | IC50 [3]: 19.5 µM

O=C(NCc1ccc(Cl)cc1)C(CCO)N1CCC(=C(c2ccccc2)c2ccccc2)CC1 (stereo unspecified)
IC50 [1]: 17.8 µM | Ki [5]: 75.9 µM | IC50 [3]: 33.9 µM

C[C@@H](O)C[C@H](C(=O)NCc1ccc(F)cc1)N1CCC(=C(c2ccccc2)c2ccccc2)CC1 (relative stereo)
IC50 [1]: 41.7 µM | Ki [5]: 42.7 µM | IC50 [3]: 16.2 µM

Cc1ccc(CNC(=O)[C@@H](C[C@@H](C)O)N2CCC(=C(c3ccccc3)c3ccccc3)CC2)cc1 (relative stereo)
Activity [2]: 58% | Activity [6]: 46%

O=C(NCc1ccc(Cl)cc1)C(CCO)N1CCC(C(c2ccccc2)c2ccccc2)CC1 (stereo unspecified)
IC50 [1]: 69.2 µM | Activity [2]: 68% | IC50 [3]: 24 µM

O=C(NCc1ccccc1Cl)C(CCO)N1CCC(=C(c2ccccc2)c2ccccc2)CC1 (stereo unspecified)
IC50 [1]: 67.6 µM | Activity [2]: 68% | Activity [6]: 58%

C[C@H](O)C[C@H](C(=O)NCc1ccccc1Cl)N1CCC(=C(c2ccccc2)c2ccccc2)CC1 (relative stereo)
Activity [4]: 73% | Activity [2]: 95% | Activity (HEK293): 71% | Activity [6]: 47%

CN(CCCC(c1ccccc1)c1ccccc1)C(CCO)C(=O)NCc1ccc(F)cc1 (stereo unspecified)
IC50 [1]: 58.9 µM | Activity [2]: 74% | IC50 [3]: 97.7 µM

C[C@@H](O)C[C@H](C(=O)NCc1ccccc1Cl)N1CCC(=C(c2ccccc2)c2ccccc2)CC1 (relative stereo)
Activity [4]: 69% | Activity [7]: 79% | Activity [2]: 99% | Activity (HEK293): 99% | Activity [6]: 95%

CN(CCC=C(c1ccccc1)c1ccccc1)C(CCO)C(=O)NCc1ccc(F)cc1 (stereo unspecified)
IC50 [1]: 20 µM | Activity [2]: 73% | IC50 [3]: 21.9 µM

Cc1ccsc1C(=CCCN1CCC[C@@H](C(=O)O)C1)c1sccc1C [TIAGABINE]
Ki [5]: 0.0389 µM | Activity (HEK293): 73%

CN(CCCC(c1ccccc1)c1ccccc1)C(CCO)C(=O)NCc1ccccc1Cl (stereo unspecified)
IC50 [1]: 25.7 µM | Activity [2]: 85% | IC50 [3]: 37.2 µM

O=C(NCc1ccc(F)cc1)C(CCO)N1CCC(C(c2ccccc2)c2ccccc2)CC1 (stereo unspecified)
IC50 [1]: 81.3 µM | Activity [2]: 49% | IC50 [3]: 18.2 µM

CN(CCC=C(c1ccccc1)c1ccccc1)C(CCO)C(=O)NCc1ccccc1Cl (stereo unspecified)
IC50 [1]: 10 µM | Activity [2]: 54% | IC50 [3]: 19.1 µM

CN(CCCC(c1ccccc1)c1ccccc1)C(CCO)C(=O)NCc1ccc(Cl)cc1 (stereo unspecified)
IC50 [1]: 22.9 µM | Activity [2]: 67% | IC50 [3]: 38.9 µM

CN(CCC=C(c1ccccc1)c1ccccc1)C(CCO)C(=O)NCc1ccccc1 (stereo unspecified)
IC50 [1]: 22.9 µM | Activity [2]: 50% | IC50 [3]: 10.5 µM

Cc1ccc(CNC(=O)C(CCO)N2CCC(=C(c3ccccc3)c3ccccc3)CC2)cc1 (stereo unspecified)
IC50 [1]: 33.9 µM | Ki [5]: 43.7 µM | IC50 [3]: 38 µM

CN(CCC=C(c1ccccc1)c1ccccc1)C(CCO)C(=O)NCc1ccc(Cl)cc1 (stereo unspecified)
IC50 [1]: 11.2 µM | Activity [2]: 61% | IC50 [3]: 23.4 µM

C[C@H](O)C[C@H](C(=O)NCc1ccc(Cl)cc1)N1CCC(=C(c2ccccc2)c2ccccc2)CC1 (relative stereo)
IC50 [1]: 69.2 µM | Activity [2]: 69% | IC50 [3]: 66.1 µM

Cc1ccc(CNC(=O)C(CCO)N(C)CCC=C(c2ccccc2)c2ccccc2)cc1 (stereo unspecified)
IC50 [1]: 16.6 µM | Activity [2]: 50% | IC50 [3]: 22.4 µM

Cc1ccc(CNC(=O)C(CCO)N2CCC(C(c3ccccc3)c3ccccc3)CC2)cc1 (stereo unspecified)
IC50 [1]: 87.1 µM | Activity [2]: 55% | IC50 [3]: 30.2 µM
